Measured values as given in ChEMBL document CHEMBL1201862, “PubChem BioAssay data set” (2004).
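The compound was tested at five concentrations on cells cultured in 96-well plates, with a 48-hour exposure period. The concentration for 50% growth inhibition is given as GI50.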 Activity calls are given as the source filed them. No stated cut-off is given here; in the data, active = GI50 up to about 1.1 µM and inactive = higher.

Key:
Assay in all cases: NCI anticancer screen, dose series, 48 h
[1] = system: NCI-H522
[2] = system: UACC-62
[3] = system: LOX IMVI
[4] = system: CAKI-1
[5] = system: OVCAR-8
[6] = system: U-251
[7] = system: SR
[8] = system: SNB-19
[9] = system: COLO 205
[10] = system: OVCAR-3
[11] = system: HCT-15
[12] = system: HL-60
[13] = system: Hs-578T
[14] = system: NCI-H226
[15] = system: HOP-92
[16] = system: CCRF-CEM
[17] = system: MOLT-4
[18] = system: SF-295
[19] = system: K562
[20] = system: PC-3

In the case of `O=C(CSCC(=O)N/N=C\c1cccc([N+](=O)[O-])c1)N/N=C\c1cccc([N+](=O)[O-])c1`, the GI50 [1] is reported as 43.8 µM (inactive), the GI50 [2] is reported as 70.8 µM (inactive) and the GI50 [3] is reported as 53.1 µM (inactive). For the same molecule, the GI50 [4] was 23.3 µM (inactive), the GI50 [5] was 31.3 µM (inactive) and the GI50 [6] was 13.5 µM (inactive). The GI50 [7] was 69 µM (inactive), the GI50 [8] was 18 µM (inactive) and the GI50 [9] was > 100 µM (inactive). The GI50 [10] was 22.9 µM (inactive), the GI50 [11] was 25.5 µM and the GI50 [12] was > 100 µM (inactive). The GI50 [13] was 45.4 µM (inactive), the GI50 [14] was > 100 µM (inactive) and the GI50 [15] was 32.4 µM (inactive). For the same molecule, the GI50 [16] was > 100 µM (inactive), the GI50 [17] was > 100 µM (inactive) and the GI50 [18] was 11.5 µM (inactive).
With `CCCCCCC1CC(=O)C1(Cl)Cl` (stereo not drawn) the GI50 [1] was 17.3 µM (inactive), the GI50 [2] was 20.3 µM (inactive) and the GI50 [3] was 14.8 µM (inactive). For the same molecule, the GI50 [4] was 18.9 µM (inactive), the GI50 [5] was 23.2 µM (inactive) and the GI50 [6] was 38.3 µM (inactive). The GI50 [7] was > 10 µM (inactive), the GI50 [8] was 63.7 µM (inactive) and the GI50 [11] was 31 µM. The GI50 [12] was 2.96 µM (inactive), the GI50 [19] was 14.7 µM (inactive) and the GI50 [13] was 20 µM (inactive). The GI50 [20] was 25.1 µM (inactive), the GI50 [14] was 43.9 µM (inactive) and the GI50 [16] was 2.4 µM (inactive). For the same molecule, the GI50 [17] was 13.5 µM (inactive) and the GI50 [18] was 33.9 µM (inactive).
With `COc1ccc(C(CC(=O)c2ccc3c(c2)OCO3)c2c(O)oc3ccccc3c2=O)cc1OC` (stereo not drawn) the GI50 [1] was > 100 µM (inactive), the GI50 [2] was 40.6 µM (inactive) and the GI50 [3] was 66.5 µM (inactive). For the same molecule, the GI50 [4] was > 100 µM (inactive), the GI50 [5] was > 100 µM (inactive) and the GI50 [6] was > 100 µM (inactive). For the same molecule, the GI50 [8] was > 100 µM (inactive), the GI50 [9] was 63.4 µM (inactive) and the GI50 [10] was 82.8 µM (inactive). The GI50 [11] was > 100 µM, the GI50 [12] was > 100 µM (inactive) and the GI50 [19] was 63.5 µM (inactive). For the same molecule, the GI50 [13] was 45.8 µM (inactive), the GI50 [20] was 88.5 µM (inactive) and the GI50 [14] was > 100 µM (inactive). The GI50 [15] was 38.5 µM (inactive), the GI50 [16] was > 100 µM (inactive) and the GI50 [17] was > 100 µM (inactive). The GI50 [18] was > 100 µM (inactive).
For `Oc1cnnc2nc3ccccc3n12`, the GI50 [1] was > 100 µM (inactive), the GI50 [3] was 85.5 µM (inactive) and the GI50 [4] was > 100 µM (inactive). The GI50 [5] was > 100 µM (inactive), the GI50 [6] was > 100 µM (inactive) and the GI50 [8] was > 100 µM (inactive). The GI50 [9] was > 100 µM (inactive), the GI50 [11] was > 100 µM and the GI50 [12] was > 100 µM (inactive). For the same molecule, the GI50 [13] was > 100 µM (inactive), the GI50 [20] was > 100 µM (inactive) and the GI50 [14] was > 100 µM (inactive). The GI50 [15] was > 100 µM (inactive), the GI50 [16] was > 100 µM (inactive) and the GI50 [17] was > 100 µM (inactive). The GI50 [18] was > 100 µM (inactive).
`CCCC1=NC(C(F)(F)F)(C(F)(F)F)N=C(N2CCOCC2)O1` was tested, and the GI50 [2] was > 100 µM (inactive), the GI50 [3] was > 100 µM (inactive) and the GI50 [4] was 63.4 µM (inactive). The GI50 [5] was > 100 µM (inactive), the GI50 [6] was > 100 µM (inactive) and the GI50 [7] was > 100 µM (inactive). The GI50 [8] was > 100 µM (inactive), the GI50 [9] was > 100 µM (inactive) and the GI50 [10] was > 100 µM (inactive). For the same molecule, the GI50 [11] was > 100 µM, the GI50 [12] was > 100 µM (inactive) and the GI50 [19] was > 100 µM (inactive). The GI50 [13] was > 100 µM (inactive), the GI50 [20] was > 100 µM (inactive) and the GI50 [14] was > 100 µM (inactive). The GI50 [15] was 25.3 µM (inactive), the GI50 [16] was > 100 µM (inactive) and the GI50 [17] was > 100 µM (inactive). For the same molecule, the GI50 [18] was > 100 µM (inactive).
`NC(=O)c1cc(-c2ccc(-n3ccnc3)cc2)nnc1O` was tested, and the GI50 [1] was > 100 µM (inactive), the GI50 [2] was > 100 µM (inactive) and the GI50 [4] was > 100 µM (inactive). The GI50 [5] was > 100 µM (inactive), the GI50 [6] was > 100 µM (inactive) and the GI50 [7] was > 100 µM (inactive). For the same molecule, the GI50 [8] was > 100 µM (inactive), the GI50 [9] was > 100 µM (inactive) and the GI50 [11] was > 100 µM. The GI50 [12] was > 100 µM (inactive), the GI50 [13] was > 100 µM (inactive) and the GI50 [20] was > 100 µM (inactive). The GI50 [15] was > 100 µM (inactive), the GI50 [16] was > 100 µM (inactive) and the GI50 [17] was > 100 µM (inactive).
`C=C(CN(C)C)C1(c2ccccc2)CC2(CCCC2)C(=O)O1` (stereo not drawn) was tested, and the GI50 [1] was 20.9 µM (inactive), the GI50 [2] was > 100 µM (inactive) and the GI50 [3] was 53 µM (inactive). The GI50 [4] was > 100 µM (inactive), the GI50 [5] was > 100 µM (inactive) and the GI50 [6] was > 100 µM (inactive). For the same molecule, the GI50 [8] was > 100 µM (inactive), the GI50 [9] was 28.2 µM (inactive) and the GI50 [10] was 38.7 µM (inactive). For the same molecule, the GI50 [11] was 76.9 µM, the GI50 [12] was 23.7 µM (inactive) and the GI50 [19] was 30.2 µM (inactive). For the same molecule, the GI50 [13] was > 100 µM (inactive), the GI50 [20] was 79.6 µM (inactive) and the GI50 [14] was > 100 µM (inactive). The GI50 [15] was 17.9 µM (inactive), the GI50 [16] was 20.6 µM (inactive) and the GI50 [17] was 24.9 µM (inactive). For the same molecule, the GI50 [18] was > 100 µM (inactive).
